Experimental data from patent US9243247B2, “Composition for promoting apoptosis or inhibiting cell growth, comprising epstein-barr virus microrna” (Catholic University Industry Academic Cooperation Foundation, priority 2011, dated 2016).

Legend:
Format in all cases: cell-based
AGS cell strain [1] = experiment: Cell growth test (CCK-8 assay) after transfection of BART miRNA mimics; details: mimic 10 nM, 72 hours after transfection, relative to scrambled control (=1), n=9
Procedure: An AGS cell strain (Korean Cell Line Bank), which is a stomach cancer cell strain, was cultured in an RPMI1640 (Gibco) culture medium including 10% fetal bovine serum. Mature type synthesized BART miRNAs were transfected to the AGS cell strain by using G-fectin (Genolution) according to a protocol of the manufacture.
To investigate the effect of individual EBV BART miRNAs on the AGS cell strain, the synthesized miRNAs were transfected to the AGS cell strain and, after 72 hours, cells were counted by CCK-8 assay.
Immediately after the AGS cell strain, which is an EBV-negative cell strain, was divided into 96-well plate having 1×10^3 cells/well, a synthesized miRNA (10 nM) was transfected by using G-fectin. After the transfection, according to the experimental objective, the cells were cultured at 37° C. in an incubator, and then CCK-8 was divided among the wells by allocating 10 μl of CCK-8 to each well and the resulting mixture was cultured in an incubator at 37° C. for two hours. Then, the light absorbance was measured with an ELISA measuring instrument.
By the method described in Example 3, miR-BART5-5p mimic or miR-BART15-3p mimic (10 nM) were transfected to the AGS cell strain, and the effect thereof on cell growth was investigated over time.
miR-BART5-5p, miR-BART15-3p, and miR-BART20-3p were transfected to the AGS cell strain (1×10^3 cells/well) in a concentration of 1, 3, 10, and 30 nM, and the effect on cell growth was investigated. Immediately after the AGS cell strain was divided into a 96-well plate such that 1×10^3 AGS cells were allocated to each well, a synthesized miRNA was transfected by using G-fectin. Seventy two hours after the transfection, CCK-8 was divided among the wells by allocating 10 μl of CCK-8 to each well, and the resulting mixture was cultured at 37° C. in an incubator for two hours.

AGS cell strain [2] = experiment: Effect on cell cycle (propidium iodide staining, FACS, sub G1); details: mimic 10 nM, 10 uM 5-FU 24 h after transfection, then 48 hours, relative to scrambled control (=1)
Procedure: The AGS cells were divided into a 96-well plate such that 2×10^5 AGS cells were allocated to each well, and synthesized miRNAs (10 nM) were transfected and cultured at 37° C. in an incubator. Twenty four hours after the transfection, 10 uM of 5-FU, which is an anti-cancer agent, was treated in one case or not treated in another case, and then the resulting mixture was cultured in an incubator at 37° C. for 48 hours. The cells were detached by using Trypsin-EDTA and washed with PBS two times.
Immediately after the AGS cell strains, which are EBV-negative cell strains, were divided into a 6-well plate such that 2×10^5 AGS cells were allocated to each well, a synthesized miRNA (10 nM) was transfected by using G-fectin and cultured at 37° C. in an incubator. Twenty four hours after the transfection, 10 uM of 5-FU was treated and the resulting mixture was cultured at 37° C. in an incubator for 48 hours. The cells were detached by using Trypsin-EDTA and washed with PBS two times. Afterwards, DNA was stained by propidium iodide staining and the ratio of cells where cell cycle was changed was investigated by FACS.

AGS cell strain [3] = experiment: Measurement of apoptosis (Annexin V staining, FACS); details: for Relative Apoptotic cell: AGS, mimic 10 nM, 10 uM 5-FU 24 h after transfection, then 48 hours, Annexin V, relative to scrambled control (=1), n=9; for effect on cell growth and apoptosis (summary statement): mimics transfected to AGS, tumor cell strain not infected with EBV
Procedure: Immediately after the AGS cell strain, which is an EBV-negative cell strain, was divided was divided into a 6-well plate such that 2×10^5 AGS cells were allocated to each well, a synthesized miRNA (10 nM) was transfected by using G-fectin and the resulting mixture was cultured at 37 t in an incubatorTwenty four hours after the transfection, 10 uM of 5-FU was treated and the resulting mixture was cultured in an incubator at 37° C. for 48 hours. The cells were detached by using Trypsin-EDTA and washed with PBS two times. Afterwards, the cells were treated with a PE Annexin V Apoptosis Detection Kit and the changed ratio of apoptotic cell was investigated by FACS (FIG. 7).
Immediately after the AGS cell strain, which is an EBV-negative cell strain, is divided into a 6-well plate such that 2×10^5 AGS cells were allocated to each well, a synthesized miRNA (10 nM) was transfected by using G-fectin and the resulting mixture was cultured at 37° C. Twenty four hours after the transfection, 10 uM of 5-FU, which is an anti-cancer agent, was treated and the resulting mixture was cultured in an incubator at 37° C. for 48 hours. The cells were detached by using Trypsin-EDTA and washed with PBS two times. Afterwards, the cells were treated with a PE Annexin V Apoptosis Detection Kit and the ratio of cells where apoptosis took place was measured by FACS.

| Substance | Relative Cell Growth (AGS cell strain [1]) | Relative Sub G1 (AGS cell strain [2]) | Relative Sub G1 (AGS cell strain [2]; listed as 6-3p) | Relative Apoptotic cell (AGS cell strain [3]) | Relative Apoptotic cell (AGS cell strain [3]; listed as 7-5p) | effect on cell growth and apoptosis (summary statement) (AGS cell strain [3]) | Relative Apoptotic cell (AGS cell strain [3]; listed as 9-5p) | Relative Sub G1 (AGS cell strain [2]; listed as 12-3p) | Relative Sub G1 (AGS cell strain [2]; listed as 12-5p) |
| --- | --- | --- | --- | --- | --- | --- | --- | --- | --- |
| BART6-3p: EBV BART miRNA mimic, double stranded RNA; sense SEQ NO: 31, antisense SEQ NO: 32 (sense CGGGGAUCGGACUAGCCUUAGA; antisense UCUAAGGCUAGUCCGAUCCCCG; chemistry not given here) | 0.9101 | 1.24 | increased | 1.018 |  |  |  |  |  |
| BART6-5p: EBV BART miRNA mimic, double stranded RNA; sense SEQ NO: 29, antisense SEQ NO: 30 (sense UAAGGUUGGUCCAAUCCAUAGG; antisense CCUAUGGAUUGGACCAACCUUA; chemistry not given here) | 0.881 | 1.023 |  | 1.117 |  |  |  |  |  |
| BART7-3p: EBV BART miRNA mimic, double stranded RNA; sense SEQ NO: 43, antisense SEQ NO: 44 (sense CAUCAUAGUCCAGUGUCCAGGG; antisense CCCUGGACACUGGACUAUGAUG; chemistry not given here) | 1.156 | 0.9393 |  | 1.107 |  |  |  |  |  |
| BART7-5p: EBV BART miRNA mimic, double stranded RNA; sense SEQ NO: 41, antisense SEQ NO: 42 (sense CCUGGACCUUGACUAUGAAACA; antisense UGUUUCAUAGUCAAGGUCCAGG; chemistry not given here) | 1.539 | 0.9918 |  | 1.097 | significantly higher | inhibit cell growth and promote apoptosis |  |  |  |
| BART8-3p: EBV BART miRNA mimic, double stranded RNA; sense SEQ NO: 47, antisense SEQ NO: 48 (sense GUCACAAUCUAUGGGGUCGUAGA; antisense UCUACGACCCCAUAGAUUGUGAC; chemistry not given here) | 1.396 | 0.9616 |  | 1.072 |  |  |  |  |  |
| BART8-5p: EBV BART miRNA mimic, double stranded RNA; sense SEQ NO: 45, antisense SEQ NO: 46 (sense UACGGUUUCCUAGAUUGUACAG; antisense CUGUACAAUCUAGGAAACCGUA; chemistry not given here) | 1.448 | 1.013 |  | 0.9757 |  |  |  |  |  |
| BART9-3p: EBV BART miRNA mimic, double stranded RNA; sense SEQ NO: 51, antisense SEQ NO: 52 (sense UAACACUUCAUGGGUCCCGUAGU; antisense ACUACGGGACCCAUGAAGUGUUA; chemistry not given here) | 1.569 | 0.8669 |  | 0.7948 |  |  |  |  |  |
| BART9-5p: EBV BART miRNA mimic, double stranded RNA; sense SEQ NO: 49, antisense SEQ NO: 50 (sense UACUGGACCCUGAAUUGGAAAC; antisense GUUUCCAAUUCAGGGUCCAGUA; chemistry not given here) | 1.482 | 1.005 |  | 1.25 |  | inhibit cell growth and promote apoptosis | significantly higher |  |  |
| BART10-3p: EBV BART miRNA mimic, double stranded RNA; sense SEQ NO: 59, antisense SEQ NO: 60 (sense UACAUAACCAUGGAGUUGGCUGU; antisense ACAGCCAACUCCAUGGUUAUGUA; chemistry not given here) | 1.591 | 0.8394 |  | 0.8971 |  |  |  |  |  |
| BART10-5p: EBV BART miRNA mimic, double stranded RNA; sense SEQ NO: 57, antisense SEQ NO: 58 (sense GCCACCUCUUUGGUUCUGUACA; antisense UGUACAGAACCAAAGAGGUGGC; chemistry not given here) | 1.646 | 0.833 |  | 0.8373 |  |  |  |  |  |
| BART11-3p: EBV BART miRNA mimic, double stranded RNA; probably sense SEQ NO: 63, antisense SEQ NO: 64 (printed as BART11-5p) (sense ACGCACACCAGGCUGACUGCC; antisense GGCAGUCAGCCUGGUGUGCGU; chemistry not given here) | 0.9459 | 1.128 |  | 1.058 |  |  |  |  |  |
| BART11-5p: EBV BART miRNA mimic, double stranded RNA; sense SEQ NO: 61, antisense SEQ NO: 62 (sense UCAGACAGUUUGGUGCGCUAGUUG; antisense CAACUAGCGCACCAAACUGUCUGA; chemistry not given here) | 1.08 | 1.081 |  | 1.006 |  |  |  |  |  |
| BART12-3p: EBV BART miRNA mimic, double stranded RNA; sense SEQ NO: 67, antisense SEQ NO: 68 (sense UCCUGUGGUGUUUGGUGUGGUU; antisense AACCACACCAAACACCACAGGA; chemistry not given here) | 1.102 | 1.317 |  | 1.084 |  |  |  | increased |  |
| BART12-5p: EBV BART miRNA mimic, double stranded RNA; sense SEQ NO: 65, antisense SEQ NO: 66 (sense ACCCGCCCAUCACCACCGGAC; antisense GUCCGGUGGUGAUGGGCGGGU; chemistry not given here) | 1.159 | 1.135 |  | 0.9458 |  |  |  |  | increased |
